According to US11325900B2, “5-(pyrimidin-4-yl)thiazol-2-yl urea derivatives as therapeutic agents” (AUCENTRA HOLDINGS PTY LTD, priority 2018, dated 2022):

What was measured:
CDK8/CycC = target: T1, CDK8/CycC (Homo sapiens, UniProt P49336); experiment: Radiometric protein kinase assay (33PanQinase Activity Assay, ProQinase); format: biochemical; details: 1.0 μM ATP, 1.0 μg/50 μL substrate RBER-IRStide, duplicate measurements, read-out: CDK8 Kinase inhibition IC50
T1 construct: purchased ProQinase GmbH, Freiburg, Germany
T1 sequence (P49336 whole entry): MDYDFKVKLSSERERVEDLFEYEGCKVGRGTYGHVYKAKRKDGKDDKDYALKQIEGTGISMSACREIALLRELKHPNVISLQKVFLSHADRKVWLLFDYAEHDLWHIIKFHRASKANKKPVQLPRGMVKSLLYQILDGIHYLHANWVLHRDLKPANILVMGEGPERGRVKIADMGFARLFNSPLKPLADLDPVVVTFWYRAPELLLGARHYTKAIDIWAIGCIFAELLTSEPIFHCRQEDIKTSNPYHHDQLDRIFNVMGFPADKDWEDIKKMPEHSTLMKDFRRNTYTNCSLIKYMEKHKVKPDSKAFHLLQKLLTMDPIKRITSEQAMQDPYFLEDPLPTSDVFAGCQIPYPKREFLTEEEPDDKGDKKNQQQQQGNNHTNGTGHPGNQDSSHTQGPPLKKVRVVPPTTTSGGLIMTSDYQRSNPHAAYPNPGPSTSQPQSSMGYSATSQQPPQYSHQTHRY
T1 sequence (P24863 whole entry partner): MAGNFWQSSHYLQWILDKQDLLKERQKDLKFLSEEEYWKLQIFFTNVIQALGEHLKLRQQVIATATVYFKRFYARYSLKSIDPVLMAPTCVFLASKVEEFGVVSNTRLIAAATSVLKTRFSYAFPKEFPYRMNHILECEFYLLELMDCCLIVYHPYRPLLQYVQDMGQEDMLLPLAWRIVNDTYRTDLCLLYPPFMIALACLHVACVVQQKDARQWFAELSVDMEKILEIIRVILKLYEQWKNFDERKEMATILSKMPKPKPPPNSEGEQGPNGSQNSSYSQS
Description: The kinase activity of CDK8/CycC was measured using a radiometric protein kinase assay (33PanQinase® Activity Assay) by ProQinase GmbH, Freiburg, Germany, with the protocols shown at www.proqinase.com/sites/default/files/public/uploads/WildtypeProfiler/radiometric_assay_v05_2012_manual.pdf. IC50 determination (8.3 nM with 1.0 μM ATP and 1.0 μg/50 μL of substrate RBER-IRStide) was performed as duplicate measurements and calculated using Quattro Workflow V3.1.1 (Quattro Research GmbH, Germany). Apparent inhibition constants (Ki) values were calculated from Km (ATP) and IC50 values for the respective kinases.

HCT-116 = experiment: Cell viability assay (MTT, solid tumour cell lines), 72 h growth inhibition; format: cell-based; details: Homo sapiens, HCT-116 cells
Text: (§1) Compounds from Example 1 may be subjected to a standard MTT (3-(4,5-dimethylthiazol-2-yl)-2,5-diphenyltetrazolium bromide) and resazurin assays on solid tumour cell lines and leukemia cell lines, respectively, as previously reported (Wang S et al., J Med Chem 47:1662-1675, 2004 and Diab S e al. CheMedChem 9:962-972, 2014). Compound concentrations required to inhibit 50% of cell growth (GI50) can be calculated using non-linear regression analysis.

MV-4-11 = experiment: Cell viability assay (resazurin, leukemia cell lines), 72 h growth inhibition; format: cell-based; details: Homo sapiens, MV4-11, MV-4-11 cells
Text: as §1

SMILES	IC50 (CDK8/CycC)	GI50 (HCT-116)	GI50 (MV-4-11)
CCOc1cccc(NC(=O)Nc2nc(C)c(-c3ccnc(NC)n3)s2)c1 [Compound 19, 1-(3-Ethoxyphenyl)-3-(4-methyl-5-(2-(methylamino)pyrimidin-4-yl)thiazol-2-yl)urea]	6 nM	854 ± 10 nM	
CCN1CCN(Cc2ccc(NC(=O)Nc3nc(C)c(-c4nc(NC)ncc4Cl)s3)cc2C(F)(F)F)CC1 [Compound 66, 1-(5-(5-Chloro-2-(methylamino)pyrimidin-4-yl)-4-methylthiazol-2-yl)-3-(4-((4-ethylpiperazin-1-yl)methyl)-3-(trifluoromethyl)phenyl)urea]	21 nM		73 ± 30 nM
CNc1ncc(Cl)c(-c2sc(NC(=O)Nc3ccc(CN4CCN(C(C)C)CC4)c(C(F)(F)F)c3)nc2C)n1 [Compound 67, 1-(5-(5-Chloro-2-(methylamino)pyrimidin-4-yl)-4-methylthiazol-2-yl)-3-(4-((4-isopropylpiperazin-1-yl)methyl)-3-(trifluoromethyl)phenyl)urea]	30 nM		174 ± 10 nM
CNc1ncc(Cl)c(-c2sc(NC(=O)Nc3ccc(CN4CCN(C(C)=O)CC4)c(C(F)(F)F)c3)nc2C)n1 [Compound 68, 1-(4-((4-Acetylpiperazin-1-yl)methyl)-3-(trifluoromethyl)phenyl)-3-(5-(5-chloro-2-(methylamino)pyrimidin-4-yl)-4-methylthiazol-2-yl)urea]	80 nM		4250 ± 420 nM
CNc1ncc(Cl)c(-c2sc(NC(=O)Nc3ccc(CN4CCN(S(C)(=O)=O)CC4)c(C(F)(F)F)c3)nc2C)n1 [Compound 69, 1-(5-(5-Chloro-2-(methylamino)pyrimidin-4-yl)-4-methylthiazol-2-yl)-3-(4-((4-(methylsulfonyl)piperazin-1-yl)methyl)-3-(trifluoromethyl)phenyl)urea]	132 nM		4690 ± 420 nM
CNc1ncc(C#N)c(-c2sc(NC(=O)Nc3ccc(CN4CCN(C)CC4)c(C(F)(F)F)c3)nc2C)n1 [Compound 71, 1-(5-(5-Cyano-2-(methylamino)pyrimidin-4-yl)-4-methylthiazol-2-yl)-3-(4-((4-methylpiperazin-1-yl)methyl)-3-(trifluoromethyl)phenyl)urea]	50 nM		200 ± 20 nM
CCN1CCN(Cc2ccc(NC(=O)Nc3nc(C)c(-c4nc(NC)ncc4C#N)s3)cc2C(F)(F)F)CC1 [Compound 72, 1-(5-(5-Cyano-2-(methylamino)pyrimidin-4-yl)-4-methylthiazol-2-yl)-3-(4-((4-ethylpiperazin-1-yl)methyl)-3-(trifluoromethyl)phenyl)urea]	64 nM		432 ± 10 nM
CNc1ncc(C#N)c(-c2sc(NC(=O)Nc3ccc(CN4CCN(C(C)C)CC4)c(C(F)(F)F)c3)nc2C)n1 [Compound 73, 1-(5-(5-Cyano-2-(methylamino)pyrimidin-4-yl)-4-methylthiazol-2-yl)-3-(4-((4-isopropylpiperazin-1-yl)methyl)-3-(trifluoromethyl)phenyl)urea]	59 nM		482 ± 30 nM
CNc1ncc(C#N)c(-c2sc(NC(=O)Nc3ccc(CN4CCN(S(C)(=O)=O)CC4)c(C(F)(F)F)c3)nc2C)n1 [Compound 74, 1-(5-(5-Cyano-2-(methylamino)pyrimidin-4-yl)-4-methylthiazol-2-yl)-3-(4-((4-(methylsulfonyl)piperazin-1-yl)methyl)-3-(trifluoromethyl)phenyl)urea]	272 nM		3250 ± 350 nM

Now from value to compound:

IC50 (CDK8/CycC)	GI50 (HCT-116)	GI50 (MV-4-11)	SMILES
15 nM		55 ± 10 nM	CNc1ncc(Cl)c(-c2sc(NC(=O)Nc3ccc(CN4CCN(C)CC4)c(C(F)(F)F)c3)nc2C)n1 [Compound 65, 1-(5-(5-Chloro-2-(methylamino)pyrimidin-4-yl)-4-methylthiazol-2-yl)-3-(4-((4-methylpiperazin-1-yl)methyl)-3-(trifluoromethyl)phenyl)urea]
25 nM		273 ± 10 nM	CNc1ncc(F)c(-c2sc(NC(=O)Nc3ccc(CN4CCOCC4)c(C(F)(F)F)c3)nc2C)n1 [Compound 70, 1-(5-(5-Fluoro-2-(methylamino)pyrimidin-4-yl)-4-methylthiazol-2-yl)-3-(4-(morpholinomethyl)-3-(trifluoromethyl)phenyl)urea]
82 nM		3420 ± 230 nM	CNc1ncc(C#N)c(-c2sc(NC(=O)Nc3ccc(CN4CCOCC4)c(C(F)(F)F)c3)nc2C)n1 [Compound 75, 1-(5-(5-Cyano-2-(methylamino)pyrimidin-4-yl)-4-methylthiazol-2-yl)-3-(4-(morpholinomethyl)-3-(trifluoromethyl)phenyl)urea]
74 nM		< 1 nM	Cc1nc(NC(=O)Nc2ccc(CN3CCN(C)CC3)c(C(F)(F)F)c2)sc1-c1ccnc(C(C)C)n1 [Compound 76, 1-(5-(2-Isopropylpyrimidin-4-yl)-4-methylthiazol-2-yl)-3-(4-((4-methylpiperazin-1-yl)methyl)-3-(trifluoromethyl)phenyl)urea]
169 nM		712 ± 20 nM	CC(=O)N1CCN(Cc2ccc(NC(=O)Nc3nc(C)c(-c4ccnc(C(C)C)n4)s3)cc2C(F)(F)F)CC1 [Compound 77, 1-(4-((4-Acetylpiperazin-1-yl)methyl)-3-(trifluoromethyl)phenyl)-3-(5-(2-isopropylpyrimidin-4-yl)-4-methylthiazol-2-yl)urea]
293 nM		1590 ± 90 nM	Cc1nc(NC(=O)Nc2ccc(CN3CCN(S(C)(=O)=O)CC3)c(C(F)(F)F)c2)sc1-c1ccnc(C(C)C)n1 [Compound 78, 1-(5-(2-Isopropylpyrimidin-4-yl)-4-methylthiazol-2-yl)-3-(4-((4-(methylsulfonyl)-piperazin-1-yl)methyl)-3-(trifluoromethyl)phenyl)urea]
206 nM		998 ± 60 nM	Cc1nc(NC(=O)Nc2ccc(CN3CCOCC3)c(C(F)(F)F)c2)sc1-c1ccnc(C(C)C)n1 [Compound 79, 1-(5-(2-Isopropylpyrimidin-4-yl)-4-methylthiazol-2-yl)-3-(4-(morpholinomethyl)-3-(trifluoromethyl)phenyl)urea]
79 nM		1 nM	CSc1nccc(-c2sc(NC(=O)Nc3ccc(CN4CCN(C)CC4)c(C(F)(F)F)c3)nc2C)n1 [Compound 80, 1-(4-Methyl-5-(2-(methylthio)pyrimidin-4-yl)thiazol-2-yl)-3-(4-((4-methyl-piperazin-1-yl)methyl)-3-(trifluoromethyl)phenyl)urea]
177 nM		715 ± 10 nM	CSc1nccc(-c2sc(NC(=O)Nc3ccc(CN4CCN(C(C)=O)CC4)c(C(F)(F)F)c3)nc2C)n1 [Compound 81, 1-(4-((4-Acetylpiperazin-1-yl)methyl)-3-(trifluoromethyl)phenyl)-3-(4-methyl-5-(2-(methylthio)pyrimidin-4-yl)thiazol-2-yl)urea]
220 nM		721 ± 30 nM	CSc1nccc(-c2sc(NC(=O)Nc3ccc(CN4CCN(S(C)(=O)=O)CC4)c(C(F)(F)F)c3)nc2C)n1 [Compound 82, 1-(4-Methyl-5-(2-(methylthio)pyrimidin-4-yl)thiazol-2-yl)-3-(4-((4-(methyl-sulfonyl)piperazin-1-yl)methyl)-3-(trifluoromethyl)phenyl)urea]
121 nM		1560 ± 100 nM	CSc1nccc(-c2sc(NC(=O)Nc3ccc(CN4CCOCC4)c(C(F)(F)F)c3)nc2C)n1 [Compound 83, 1-(4-Methyl-5-(2-(methylthio)pyrimidin-4-yl)thiazol-2-yl)-3-(4-(morpholinomethyl)-3-(trifluoromethyl)phenyl)urea]
